Assay results published in doi:10.1101/2022.11.11.516135v3 (biorxiv, 2024).

Molecular target: G3BP1-NTF2 (residues 1-139); NTF2-like domain of G3BP1 (Homo sapiens, UniProt Q13283)
Test: biochemical
Assay type: binding

Chain of G3BP1-NTF2 (residues 1-139); NTF2-like domain of G3BP1 (Q13283 1-139): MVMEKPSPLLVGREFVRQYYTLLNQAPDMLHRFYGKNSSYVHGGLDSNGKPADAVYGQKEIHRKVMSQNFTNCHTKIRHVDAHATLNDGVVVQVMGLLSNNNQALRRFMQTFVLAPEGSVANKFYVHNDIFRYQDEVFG

With CNC(=O)c1c(F)cccc1Nc1nc(Nc2cc3c(cc2OC)CCN3C(=O)CN(C)C)nc2[nH]ccc12 [GSK, GSK1838705A] the Kd was 98 µM.

CC[C@H](NC(=O)c1c(C)c(-c2ccccc2)nc2ccccc12)c1ccccc1 [SB2, SB_222200] was tested, and the Kd was 66 µM.

O=C1NCN(c2ccccc2)C12CCN(CCCC(c1ccc(F)cc1)c1ccc(F)cc1)CC2 [FLU, Fluspiriline] showed a Kd of 71.4 µM.

COc1ccc(Br)cc1S(=O)(=O)NC(=O)/C=C/c1ccccc1Cc1ccc2ccccc2c1 [L-7, L-798106] gave a Kd of 18.7 µM.

CN1C[C@H](C(=O)N[C@]2(C)O[C@@]3(O)[C@@H]4CCCN4C(=O)[C@H](Cc4ccccc4)N3C2=O)C[C@@H]2c3cccc4[nH]cc(c34)C[C@H]21 [DHD, Dihydroergotamine] showed a Kd of 54 µM.
